Key:
Format in all cases: cell-based
[1] = test system: KS62 strain stem-cell human leukemia cells; assay: Inhibition of human leukemia cell growth in vitro, as done in Example 3; conditions: for inhibition at 1 µg/mL / inhibition at 5 µg/mL / inhibition at 10 µg/mL: Homo sapiens
Experimental: A conventionally available cell line (K562) derived from human chronic granulocytic leukemia was employed in an in vitro procedure. The leukemia cell line was cultured in a suspension of RPMI 1640 plus 10% fetal calf serum. All initial cell concentrations for the cultures were 0.65 times 10^5 cells/ml. Four separate suspension cultures were employed with the first suspension culture having no additions. The second suspension culture included 100 microliters of the solvent DMSO per 10 ml of culture (control). The third culture contained 1 ug/ml of 3[[5-methyl-2 thienyl]methylene]-2, 4 (3H, 5H) furandione and the fourth culture contained 1 ug/ml of 3[[3-methyl-2-thienyl]methylene]-2, 4 (3H, 5H) furandione. The cell concentration of each of the four cultures was determined. After three days and again after five days.
In this example, aliquots of 1.0, 5.0 and 10.0 mcg/ml of each of the family compounds was prepared and assayed against KS62 strain stem-cell human leukemia cells in an in vitro procedure as done in Example 3 above.

human tumor H5330 THYMUS = assay: Human Tumor Stem Cell Assay, colony growth after one hour exposure; conditions: 1 h
Description: (§1) The in vitro Human Tumor Stem Cell Assay procedure described as follows has several advantages for testing the effectiveness of chemotherapy drugs such as the 3-(heteroarylalkylene)-2,4(3H,5H)-furandiones. The first advantage is that fresh tumor cells from a variety of tumor types were used rather than a small number of cell lines which have undergone severe selection pressures as they are passed in vitro. The second advantage is that only the anchorage-independent tumor cells will form colonies in soft agar so that any non-malignant cells present in the sample will not form colonies. Perhaps the most important advantage, however, is the emphasis on cells which have the ability to form colonies. These cells, which are generally called stem cells, usually comprise only a small percentage of all tumor cells. They are thought to be the most important cells for growth and distant spread of a tumor. In particular, these cells have the potential to leave the primary tumor and form new tumors at distant sites (called metastases). It is the effectiveness against these very important stem cells that the Human Tumor Stem Cell Assay measures.
(§2) One of the 3-(heteroarylalkylene)-2,4(3H,5H)-furandione compounds, 3-[(5-methyl-2-thienyl) methylene]-2,4(3H,5H)-furandione was evaluated against a series of 10 human tumors in the in vitro Human Tumor Cell Assay, along with conventional and standard chemotherapy agents.
(§3) In the procedure, a single cell suspension was prepared from tumors excised from patients during therapeutic or diagnostic surgical procedures. The human tumor cells were exposed to known anticancer drugs or to [(5-methyl-2-thienyl)methylene]-2,4 (3H, 5H)-furandione at a low (0.2 mcg/ml) or a high (1.0 mcg/ml) concentration for one hour. […] The suspension was washed with tissue culture medium to remove the drug.
(§4) The suspension was then cultured in a double soft agar suspension. Control cells which had been treated identically, except for exposure to the drugs, were also cultured. After one to two weeks, both the tumor cells and the control cells formed colonies in the soft agar which were enumerated under a microscope. The number of colonies grown from the drug-treated cells was compared to the number of colonies grown from the control cells, and the percentage growth after exposure to the drug was calculated.
(§5) The results are illustrated in Table 1, wherein the various numbers indicate the percentage of growth. For example, a small number like 6 means that the number of colonies is only 6% of the number without addition of the compound. On the other hand, a large number like 120 means that the number of colonies is 20% greater with the compound than without.
(§6) Of the nine tumors for which the higher concentration (1.0 mcg/ml) of the furandione was used, five gave inhibition of colony growth corresponding to borderline sensitive (30-50% growth) and four gave inhibition corresponding to sensitivity (0-30% growth). Clinical drugs are normally tested at 10% of their peak plasma concentration. For the standard chemotherapy drugs shown in Table 1, the low concentration (LO) corresponds to this 10% level, and the high concentration (HI) is at 50% of the peak plasma concentration. Of the same nine tumors, only two would have been rated as sensitive or borderline sensitive to any of the other clinical drugs tested.

[2] = test system: human tumor H5325 SARCOMA; assay: as above; conditions: 1 h
Description: as §1, §2, §3, §4, §5, §6

human tumor H5331 OVARY = assay: as above; conditions: HI: furandione 1.0 mcg/ml; standard drugs 50% of peak plasma concentration; 1 h
Description: as §1, §2, §3, §4, §5, §6

human tumor H5318 OVARY = assay: as above; conditions: HI: furandione 1.0 mcg/ml; standard drugs 50% of peak plasma concentration; 1 h
Description: as §1, §2, §3, §4, §5, §6

[3] = HI: furandione 1.0 mcg/ml, standard drugs 50% of peak plasma concentration
[4] = LO: furandione 0.2 mcg/ml, standard drugs 10% of peak plasma concentration

Compound | inhibition at 1 µg/mL ([1]; 1.0 mcg/ml) | inhibition at 5 µg/mL ([1]; 5.0 mcg/ml) | inhibition at 10 µg/mL ([1]; 10.0 mcg/ml) | also measured
CN(C)c1ccc(C=C2C(=O)COC2=O)cc1 [Compound 57] | 17% | 94% | 96% | 
O=C1CSC(=O)C1=Cc1ccc(Br)s1 [Compound 70, 3-[(5-bromo-2-thienyl)methylene]-2.4(3H,5H)-1-thiophene dione] | 22% | 30% | 54% | 
Cc1ccc(C=CC=C2C(=O)CNC2=O)s1 [Compound 67, 3-[(5-methyl-2-thienyl)propylenediene]-2,4(3H,5H) pyrrolidinedione] | 0% | 0% | 94% | 
CCOC(=O)c1ccc(C=C2C(=O)OC(C)(C)C2=O)s1 [Compound 61, 3-(5-carboxyethyl-2-thienyl)methylene1-5.5-dimethyl 11-2,4(3H)furandione] | 0% | 18% | 42% | 
COc1cc([C@@H]2c3cc4c(cc3[C@@H](O[C@@H]3O[C@@H]5CO[C@@H](C)O[C@H]5[C@H](O)[C@H]3O)[C@H]3COC(=O)[C@H]23)OCO4)cc(OC)c1O [VP16] |  |  |  | percentage of growth (colonies vs control) (human tumor H5330 THYMUS; [3]): 77%
O=C1COC(=O)C1=Cc1ccc(Cl)c(Cl)c1 [Compound 55, 3-[(3,4-dichloro-1-phenyl)methylene]-2,4(3H,5H) -furandione] |  |  |  | % Inhibition ([1]; 1.0 mcg/ml): 0%; % Inhibition ([1]; 5.0 mcg/ml): 0%; % Inhibition ([1]; 10.0 mcg/ml): 0%
COc1ccc(C=C2C(=O)COC2=O)c(OC)c1 [Compound 52, 3-[(2,4-dimethoxy-1-phenyl)methylene]-2,4(3H,5H)-furandione] | 8% | 38% | 95% | 
CC1(C)OC(=O)C(=Cc2ccc(Br)s2)C1=O [Compound 60] | 0% | 96% | 100% | 
O=C1COC(=O)C1=Cc1ccc(I)s1 [Compound 48, 3-[(5-iodo-2-thienyl)-methylene]-2.4(3H,5H)-furandione] | 0% | 0% | 98% | 
O=C1COC(=O)C1=Cc1ccc(Br)s1 [Compound 49] | 0% | 0% | 98% | 
ACTINOMYCEN D |  |  |  | percentage of growth (colonies vs control) [2, 3]: 22%; percentage of growth (colonies vs control) [2, 4]: 6%
Cc1ccsc1C=C1C(=O)CNC1=O [Compound 66, 3-(3-methyl-2-thienyl)methylene1-2,4(3H,5H) pyrrolidinedione] | 0% | 15% | 54% | 
O=C1COC(=O)C1=Cc1ccc(C(=O)O)s1 [Compound 50, 3-[(5-carboxy-2-thienyl)-methylene]-2,4(3H,5H)-furandione] | 0% | 0% | 0% | 
Cc1ccsc1C=C1C(=O)OC(C)(C)C1=O [Compound 62, 3[(3-methyl-2-thienyl)methylene]-5,5dimethyl-2,4(3H,5H) furandione] | 6% | 99% | 100% | 
Cc1ccc(C=C2C(=O)OC(C)(C)C2=O)s1 [Compound 58] | 51% | 97% | 100% | 
CCOC(=O)c1ccc(C=C2C(=O)CNC2=O)s1 [Compound 65] | 7% | 32% | 75% | 
O=C1CNC(=O)C1=Cc1ccc(Br)s1 [Compound 64] | 0% | 0% | 0% | 
CN(C)/N=N/c1[nH]cnc1C(N)=O [DTIC, DACARBAZINE] |  |  |  | percentage of growth (colonies vs control) (human tumor H5330 THYMUS; [3]): 59%; percentage of growth (colonies vs control) (human tumor H5330 THYMUS; [4]): 91%
O=C1COC(=O)C1=Cc1ccc(N2CCCCC2)s1 [Compound 56] |  |  |  | % Inhibition ([1]; 1.0 mcg/ml): 0%; % Inhibition ([1]; 5.0 mcg/ml): 0%; % Inhibition ([1]; 10.0 mcg/ml): 0%
CCOC(=O)c1ccc(C=C2C(=O)COC2=O)s1 [Compound 45, 3-[(5-ethoxycarbonyl-2-thienyl)-methylene]-2,4(3H,5H) -furandione] | 0% | 0% | 100% | 
O=C1CNC(=O)C1=Cc1ccc(N2CCCCC2)s1 [Compound 68, 3-(5-N-piperdyl-2-thienyl)methylene1-2.4(3H.5H) pyrrolidinedione] |  |  |  | % Inhibition ([1]; 1.0 mcg/ml): 0%; % Inhibition ([1]; 5.0 mcg/ml): 0%; % Inhibition ([1]; 10.0 mcg/ml): 0%
Cc1ccc(C=C2C(=O)CSC2=O)s1 [Compound 69] | 13% | 41% | 100% | 
Cc1ccsc1C=C1C(=O)COC1=O [Compound 51, 3-[(3-methyl-2-thienyl)methylene]-2.4(3H.5H)-furandione] | 37% | 100% | 100% | 
CC1(C)OC(=O)C(=Cc2ccc(I)s2)C1=O [Compound 59, 3-[(5-iodo-2-thienyl)methylene]-5.5-dimethyl-2,4 (3H)furandione] | 1% | 37% | 94% | 
Cc1ccc(C=C2C(=O)CNC2=O)s1 [Compound 63, 3-[(5-methyl-2-thienyl)methylene] -2,4(3H.5H) pyrrolidinedione] | 0% | 0% | 0% | 
CN(C)c1nc(N(C)C)nc(N(C)C)n1 [HXM, HEXAMETHYLMELAMINE] |  |  |  | percentage of growth (colonies vs control) (human tumor H5331 OVARY): 84%; percentage of growth (colonies vs control) (human tumor H5318 OVARY): 102%
Cc1ccc(C=CC=C2C(=O)COC2=O)s1 [Compound 53, 3-[(5-methyl-2-thienyl)propylenediene)-2,4(3H,5H)-furandione] | 0% | 71% | 99% | 
O=C1COC(=O)C1=CC=Cc1ccc(Br)s1 [Compound 54] | 27% | 99% | 100% | 
